Test results taken from patent US20170081357A1, “[…] ACTIVE 17-NITROGEN SUBSTITUTED ESTRATREINTHIAZOLE DERIVATIVES AS INHIBITORS OF 17.BETA-HYDROXYSTEROID DEHYDROGENASE” (FORENDO PHARMA LTD, priority 2013, published 2017).

Experiments:
[1] = target: T1, recombinant human 17β-HSD1 (Homo sapiens, UniProt P14061); experiment: Inhibition of recombinant human 17β-HSD1 (conversion of 3H-estrone to estradiol, HPLC); format: biochemical; conditions: inhibitor 1 μM; 30 nM estrone, 1 mM NADPH, 30 min at RT; read-out: 17β-HDS1 Inhibition % at 1 μM
T1 construct: made in house; host or cells: Sd9 (Sf9) insect cells, baculovirus (Bac to Bac Expression System); microsomal fraction
T1 sequence (P14061 1-328): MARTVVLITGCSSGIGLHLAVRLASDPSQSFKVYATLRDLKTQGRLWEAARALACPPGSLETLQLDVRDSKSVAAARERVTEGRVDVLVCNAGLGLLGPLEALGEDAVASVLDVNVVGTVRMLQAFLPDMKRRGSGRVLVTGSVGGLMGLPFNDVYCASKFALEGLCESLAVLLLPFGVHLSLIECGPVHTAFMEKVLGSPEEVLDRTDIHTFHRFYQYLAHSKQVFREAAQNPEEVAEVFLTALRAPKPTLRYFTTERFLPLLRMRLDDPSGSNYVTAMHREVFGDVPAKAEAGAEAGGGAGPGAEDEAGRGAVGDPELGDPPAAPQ
Protocol: 17β-HSD1 production and isolation: Recombinant baculovirus was generated by the “Bac to Bac Expression System” (Invitrogen). Recombinant bacmid was transfected to Sd9 insect cells using “Cellfectin Reagent” (Invitrogen). 60 h later cells were harvested; the microsomal fraction was isolated as described by Puranen, T. J., Poutanen, M. H., Peltoketo, H. E., Vihko, P. T. and Vihko, R. K. (1994) Site-directed mutagenesis of the putative active site of human 17 β-hydroxysteroid dehydrogenase type 1. Biochem. J. 304: 289-293. Aliquots were stored frozen until determination of enzymatic activity.
Assay—Inhibition of recombinant human 17β-HSD1: Recombinant protein (1 μg/ml) was incubated in 20 mM KH2PO4 pH 7.4 with 30 nM estrone (including 800 000 cpm/ml of ^3H-estrone) and 1 mM NADPH for 30 min at RT, in the presence of the potential inhibitor at concentrations 1 μM or 0.1 μM. Inhibitor stock solutions were prepared in DMSO. Final concentration of DMSO was adjusted to 1% in all samples. The enzyme reaction was stopped by addition of 10% trichloroacetic acid (final concentration). Samples were centrifuged in a microtiter plate at 4000 rpm for 10 min. Supernatants were applied to reverse phase HPLC on a Waters Symmetry C18 column, equipped with a Waters Sentry Guard column. Isocratic HPLC runs were performed at RT at a flow rate of 1 ml/min in acetonitrile:water 48:52 as running solvent. Radioactivity was monitored in the eluate by a Packard Flow Scintillation Analyzer. Total radioactivity for estrone and estradiol were determined in each sample and percent conversion of estrone to estradiol was calculated according to the following formula:
(§1) Percent inhibition was calculated flowingly: % inhibition=100−% conversion

[2] = target: T2, recombinant human 17β-HSD2 (Homo sapiens, UniProt P37059); experiment: Inhibition of recombinant human 17β-HSD2 (conversion of 3H-estradiol to estrone, HPLC); format: biochemical; conditions: inhibitor 1 μM; 50 nM estradiol, 1 mM NADH, 30 min at RT
T2 construct: made in house; host or cells: Sd9 (Sf9) insect cells, baculovirus (Bac to Bac Expression System); fractionated cell extract
T2 sequence (P37059 1-387): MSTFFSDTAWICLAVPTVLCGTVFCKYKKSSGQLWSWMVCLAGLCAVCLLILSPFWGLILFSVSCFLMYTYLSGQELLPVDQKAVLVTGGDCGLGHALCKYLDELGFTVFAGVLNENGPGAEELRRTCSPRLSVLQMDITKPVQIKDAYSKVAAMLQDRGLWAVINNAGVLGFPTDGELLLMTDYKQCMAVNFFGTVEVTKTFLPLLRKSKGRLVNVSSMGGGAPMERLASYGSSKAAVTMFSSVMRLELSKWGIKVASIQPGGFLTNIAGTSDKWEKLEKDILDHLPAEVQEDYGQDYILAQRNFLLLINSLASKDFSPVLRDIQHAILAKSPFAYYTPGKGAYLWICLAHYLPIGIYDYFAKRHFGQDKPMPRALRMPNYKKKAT
Protocol: 17β-HSD2 production and isolation: Similarly to 17β-HSD1 the Recombinant baculovirus was generated by the “Bac to Bac Expression System” (Invitrogen). Recombinant bacmid was transfected to Sd9 insect cells using “Cellfectin Reagent” (Invitrogen). 60 h later cells were harvested and supernatant were fractionated by the following protocol: • cells were dissolved into 40 ml of A-buffer (40 mM TRIS, pH8.0, 20% glycerol, 20 μM NAD, 0.4 mM PMSF, 150 mM NaCl, 0.5% dodecyl-β-maltoside+protease inhibitor cocktail) • cells were sonicated • lysate was incubated on ice for 15 min • lysate was centrifuged 5000 rpm 15 min, +4° C. • centrifugation of the supernatant 180 000 g 30 min, +4° C. • pellet was dissolved into 8 ml of A-buffer • not resuspended material was removed by centrifugation 5000 rpm 15 min, +4° C. • the clear supernatant was divided into 100 μl aliquots and were stored frozen until determination of enzymatic activity.
The amount of 17β-HSD2 was analysed by immunoblotting and total protein concentration of each extract batch was determined.
Assay—Inhibition of recombinant human 17β-HSD2: Recombinant protein (4 μg/ml) was incubated in 20 mM KH2PO4 pH 8.5 with 50 nM estradiol (including 800 000 cpm/ml of ^3H-estradiol) and 1 mM NADH for 30 min at RT, in the presence of the potential inhibitor at concentrations 1 μM or 0.1 μM. Inhibitor stock solutions were prepared in DMSO. Final concentration of DMSO was adjusted to 1% in all samples. The enzyme reaction was stopped by addition of 10% trichloroacetic acid (final concentration). Samples were centrifuged in a microtiter plate at 4000 rpm for 10 min. Supernatants were applied to reverse phase HPLC on a Waters Symmetry C18 column, equipped with a Waters Sentry Guard column. Isocratic HPLC runs were performed at RT at a flow rate of 1 ml/min in acetonitrile:water 48:52 as running solvent. Radioactivity was monitored in the eluate by a Packard Flow Scintillation Analyzer. Total radioactivity for estrone and estradiol were determined in each sample and percent conversion of estradiol to estrone was calculated according to the following formula:
as §1

Row | Compound | inhibition at 1 µM [1] [%] | inhibition at 1 µM [2] [%]
1 | Cc1cnc(NC(=O)CC[C@@H]2c3c[nH]nc3[C@@]3(C)CCC4c5ccccc5CCC4C23)s1 (stereo partly drawn) [Compound 52, 3-((6aS,10S)-6a-methyl-4b,5,6,6a,8,10,10a,10b,11,12-decehydro-7,8-diaza-pentaleno[2,1-1]phenanthren-10-yl}-N-(5-methylthiazol-2-yl)propanamide] | 94 | 0
2 | Cc1cnc(NC(=O)CC[C@@H]2c3c[nH]nc3[C@@]3(C)CCC4c5cc(Br)c(O)c(Br)c5CCC4C23)s1 (stereo partly drawn) [Compound 54, 3-((6aS,10S)-1,3-dibromo-2-hydroxy-6a-methyl-4b,5,6,6a,8,10,10a,10b,11,12-decehydro-7,8-diaza-pentaleno[2,1-1]phenanthren-10-yl}-N-(5-methylthiazol-2-yl)propanamide] | 90 | 13
3 | Cc1cnc(NC(=O)CC[C@@H]2c3c[nH]nc3[C@@]3(C)CCC4c5ccc(O)c([N+](=O)[O-])c5CCC4C23)s1 (stereo partly drawn) [Compound 56, 3-((6aS,10S)-2-Hydroxy-6a-methyl-4-nitro-4b,5,6,6a,8,10,10a,10b,11,12-decehydro-7,8-diaza-pentaleno[2,1-1]phenanthren-10-yl}-N-(5-methylthiazol-2-yl)propanamide] | 97 | 39
4 | Cc1cnc(NC(=O)CC[C@@H]2C(=C\O)/C(=N\O)[C@@]3(C)CCC4c5ccc(O)cc5CCC4C23)s1 (stereo partly drawn) [Compound 69, 3-{(13S,15S)-3-Hydroxy-17-[(Z)-hydroxyimino]-16-[1-hydroxy-meth-(E)-ylidene]-13-methyl-7,8,9,11,12,13,14,15,16,17-decahydro-6H-cyclopenta[a]phenanthren-15-yl}-N-(5-methylthiazol-2-yl)propanamide] | 98 | 2
5 | Cc1cnc(NC(=O)CC[C@@H]2C(=C\O)/C(=N\O)[C@@]3(C)CCC4c5ccc(O)c(Br)c5CCC4C23)s1 (stereo partly drawn) [Compound 71, 3-{(13S,15S)-4-Bromo-3-hydroxy-17-[(Z)-hydroxyimino]-16-[1-hydroxy-meth-(E)-ylidene]-13-methyl-7,8,9,11,12,13,14,15,16,17-decahydro-6H-cyclopenta[a]phenanthren-15-yl}-N-(5-methylthiazol-2-yl)propanamide] | 82 | 7
6 | COc1cc2c(cc1/C(C)=N/O)C1CC[C@]3(C)/C(=N/O)C[C@@H](CCC(=O)Nc4ncc(C)s4)C3C1CC2 (stereo partly shown) [Compound 72] | 77 | 3
7 | CO/N=C1\C[C@@H](CCC(=O)Nc2ncc(C)s2)C2C3CCc4cc(OC)ccc4C3CC[C@]12C (stereo partly drawn) [Compound 74, 3-{(13S,15R)-3-Methoxy-17-[(E)-methoxyimino]-13-methyl-7,8,9,11,12,13,14,15,16,17-decahydro-6H-cyclopenta[a]phenanthren-15-yl}-N-(5-methylthiazol-2-yl)propanamide] | 59 | 2
8 | CO/N=C1\C[C@@H](CCC(=O)Nc2ncc(C)s2)C2C3CCc4cc(OC)c(I)cc4C3CC[C@]12C (stereo partly drawn) [Compound 84, 3-{(13S,15R)-2-iodo-3-methoxy-17-[(E)-methoxyimino]-13-methyl-7,8,9,11,12,13,14,15,16,17-decahydro-6H-cyclopenta[a]phenanthren-15-yl}-N-(5-methylthiazol-2-yl)propanamide] | 62 | 1
9 | CO/N=C1\C[C@@H](CCC(=O)Nc2ncc(C)s2)C2C3CCc4cc(O)c(CN5CCOCC5)cc4C3CC[C@]12C (stereo partly drawn) [Compound 98, 3-{(13S,15R)-3-Hydroxy-17-[(E)-methoxyimino]-13-methyl-2-morpholin-4-ylmethyl-7,8,9,11,12,13,14,15,16,17-decahydro-6H-cyclopenta[a]phenanthren-15-yl}-N-(5-methylthiazol-2-yl)propanamide] | 57 | 0
10 | CO/N=C1\C[C@@H](CCC(=O)Nc2ncc(C)s2)C2C3CCc4cc(OC(C)=O)ccc4C3CC[C@]12C (stereo partly drawn) [Compound 100, Acetic acid (13S,15R)-17[(E)-methoxyimino]-13-methyl-15-[2-(5-methylthiazol-2-ylcarbamoyl)-ethyl]-7,8,9,11,12,13,14,15,16,17-decahydro-6H-cyclopenta[a]phenanthren-3-yl ester] | 84 | 1
11 | CO/N=C1\C[C@@H](CCC(=O)Nc2ncc(C)s2)C2C3CCc4cc(OC(=O)CN(C)C)ccc4C3CC[C@]12C (stereo partly drawn) [Compound 101, Dimethylamino-acetic acid (13S,15R)-17[(E)-methoxyimino]-13-methyl-15-[2-(5-methylthiazol-2-ylcarbamoyl)-ethyl]-7,8,9,11,12,13,14,15,16,17-decahydro-6H-cyclopenta[a]phenanthren-3-yl ester] | 88 | 3
12 | CCO/N=C1\C[C@@H](CCC(=O)Nc2ncc(C)s2)C2C3CCc4cc(O)ccc4C3CC[C@]12C (stereo partly drawn) [Compound 105, 3-{(13S,15R)-17-[(E)-Ethoxyimino]-3-hydroxy-13-methyl-7,8,9,11,12,13,14,15,16,17-decahydro-6H-cyclopenta[a]phenanthren-15-yl}-N-(5-methylthiazol-2-yl)propanamide] | 94 | 3
13 | C=CCO/N=C1\C[C@@H](CCC(=O)Nc2ncc(C)s2)C2C3CCc4cc(O)ccc4C3CC[C@]12C (stereo partly drawn) [Compound 107, 3-{(13S,15R)-17-[(E)-Allyloxyimino]-3-hydroxyl-13-methyl-7,8,9,11,12,13,14,15,16,17-decahydro-6H-cyclopenta[a]phenanthren-15-yl}-N-(5-methylthiazol-2-yl)propanamide] | 70 | 3
14 | C=CCO/N=C1\C[C@@H](CCC(=O)Nc2ncc(C)s2)C2C3CCc4cc(O)c([N+](=O)[O-])cc4C3CC[C@]12C (stereo partly drawn) [Compound 108, 3-{(13S,15R)-17-[(E)-Allyloxyimino]-3-hydroxyl-13-methyl-2-nitro-7,8,9,11,12,13,14,15,16,17-decahydro-6H-cyclopenta[a]phenanthren-15-yl}-N-(5-methylthiazol-2-yl)propanamide] | 80 | 1
